Measurements reported in patent US20240279281A1, “Peptide Inhibitors of Interleukin-23 Receptor” (Janssen Pharmaceutica NV, priority 2023, published 2024).
Starred links: 1 amine or outer side, 2 acyl side, 3 side chain; linkers in the order of their positions; H or OH if unused. Positions of bridges follow the written chain, without caps; N, C: chain ends. Non-standard residues stand in square brackets, D forms with d. Residues, ends and D or L forms follow the SMILES beside them. *: point of attachment. Trp(7-(3-AcNH-Ph)) = CC(=O)Nc1cccc(-c2cccc3c(C[C@H](N)C(=O)O)c[nH]c23)c1; Me3N+(CH2)2O(CH2)2O(CH2)2CO = C[N+](C)(C)CCOCCOCCC(=O)*; 2Nal(6-OH) = N[C@@H](Cc1ccc2cc(O)ccc2c1)C(=O)O; Trp(7-Me) = Cc1cccc2c(C[C@H](N)C(=O)O)c[nH]c12; Abu(4-yl) = O=C([C@H](CC[*:3])N[*:1])[*:2]; dLys(Me3) = C[N+](C)(C)CCCC[C@@H](N)C(=O)O; Dab(NMeAc) = CC(=O)N(C)CC[C@H](N)C(=O)O; AEF = NCCOc1ccc(C[C@H](N)C(=O)O)cc1; 3Pal = N[C@@H](Cc1cccnc1)C(=O)O; Aad = N[C@@H](CCCC(=O)O)C(=O)O; Lys(Me) = CNCCCC[C@H](N)C(=O)O; Pen = CC(C)(S)[C@H](N)C(=O)O; Thp = NC1(C(=O)O)CCOCC1; X18 = C[N+](C)(C)CCCCC*; Ava = NCCCCC(=O)O; Sar = CNCC(=O)O

Legend:
IL-23R = target: T1, IL-23R (Homo sapiens, UniProt Q5VWK5); test: IL23R Reporter Assay; format: cell-based; conditions: HEK293 cells containing IL-23R, IL-12Rβ1 and STAT-inducible luciferase reporter; 10 ng/mL IL-23; 5 h; read-out: IC50
T1 construct: host or cells: HEK293
T1 sequence (Q5VWK5 24-629): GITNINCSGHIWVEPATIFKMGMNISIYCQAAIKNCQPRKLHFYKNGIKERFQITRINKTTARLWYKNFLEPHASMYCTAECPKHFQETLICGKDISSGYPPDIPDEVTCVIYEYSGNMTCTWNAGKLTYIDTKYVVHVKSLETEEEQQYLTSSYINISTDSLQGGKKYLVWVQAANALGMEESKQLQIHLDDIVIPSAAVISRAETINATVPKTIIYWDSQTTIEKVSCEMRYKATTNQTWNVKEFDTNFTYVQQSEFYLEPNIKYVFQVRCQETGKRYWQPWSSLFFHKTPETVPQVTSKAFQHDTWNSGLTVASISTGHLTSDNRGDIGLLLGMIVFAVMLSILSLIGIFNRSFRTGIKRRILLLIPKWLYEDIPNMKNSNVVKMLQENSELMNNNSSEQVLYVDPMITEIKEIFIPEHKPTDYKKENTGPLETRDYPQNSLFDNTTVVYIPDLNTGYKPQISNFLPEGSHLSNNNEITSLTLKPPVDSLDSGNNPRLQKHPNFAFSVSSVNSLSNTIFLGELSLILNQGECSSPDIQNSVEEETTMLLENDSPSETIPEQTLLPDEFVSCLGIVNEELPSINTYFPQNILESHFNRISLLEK
Experimental: Compounds were serially diluted in 100% (v/v) DMSO) and plated using an Echo acoustic dispenser (Labcyte) into 1536-well non-treated black assay plates (Corning #9146). […] After 5 h at 37° C., 5% CO2, 95% relative humidity, cells were placed at 20° C. and treated with BioGlo reagent (Promega) according to the Manufacturer's instructions. Luminescence was measured on a Pherastar FSX (BMG LabTech).

[1] = target: T2, IL-23-stimulated phosphorylated STAT3 in peripheral blood mononuclear cells (PBMCs) (Homo sapiens, UniProt Q5VWK5); test: PBMC pSTAT3 Assay; format: cell-based; conditions: PBMCs from healthy donors, IL-23 5 ng/mL, 30 minutes, read-out: PBMC pSTAT3 IC50
T2 sequence (Q5VWK5 24-629): T1 sequence (Q5VWK5 24-629)
Experimental: Cryopreserved peripheral blood mononuclear cells (PBMCs) from healthy donors were thawed and washed twice in ImmunoCult-XF T cell expansion medium (XF-TCEM) supplemented with CTL anti-aggregate wash. The cells were counted, resuspended at 2-6×10^5 cells per mL XF-TCEM supplemented with penicillin/streptomycin and 100 ng/mL IL-1β (BioLegend, 579404), and cultured in tissue culture flasks coated with anti-CD3 (eBioscience, 16-0037-85 or BD Pharmingen, 555329) at 37° C. in 5% CO2. On day 4 of culture, PBMCs were collected, washed twice in RPMI-1640 supplemented with 0.1% BSA (RPMI-BSA), and incubated in RPMI-BSA in upright tissue culture flasks for ˜4 hours at 37° C. in 5% CO2. Following this ‘starvation,’ a total of 6×10^4 cells in 30 μL RPMI-BSA was transferred into each well of a 384-well plate pre-spotted with peptide or DMSO. The cells were incubated for 30 minutes prior to the addition of IL-23 at a final concentration of 5 ng/mL. The cells were stimulated with cytokine for 30 minutes at 37° C. in 5% CO2, transferred onto ice for 10 minutes, and lysed. Cell lysates were stored at −80° C. until phosphorylated STAT3 was measured using the phospho-STAT panel kit (Meso Scale Discovery, K15202D).

IC50 (IL-23R) | IC50 [1] | SMILES
< 10 nM | < 0.01 nM | CC(=O)N(C)CCCC[C@@H]1NC(=O)[C@H](Cc2c[nH]c3c(C)cccc23)NC(=O)[C@H]([C@@H](C)O)NC(=O)[C@H](CC(N)=O)NC(=O)[C@@H](NC(=O)CCOCCOCC[N+](C)(C)C)C(C)(C)SSC(C)(C)[C@@H](C(=O)N[C@@H](Cc2ccc(OCCN)cc2)C(=O)N[C@@H](Cc2ccc3cc(O)ccc3c2)C(=O)NC2(C(=O)N[C@@H](CCC(=O)N(C)C)C(=O)N[C@@H](CC(N)=O)C(=O)N[C@@H](Cc3cccnc3)C(=O)N(C)CC(N)=O)CCOCC2)NC1=O [compound 392, cPEG3aCO-Pen(3)-N-T-7MeW-K(NMeAc)-Pen(3)-AEF-6OH2Nal-THP-Q(N(Me)2)-N-3Pya-Sar-CONH2] ({Me3N+(CH2)2O(CH2)2O(CH2)2CO}-[Pen]NT[Trp(7-Me)][Lys(Me)](Ac)[Pen][AEF][2Nal(6-OH)][Thp]E(NMe2)N[3Pal][Sar]-NH2; disulfide 1-6)
< 10 nM | 0.01 to 0.1 nM | Cc1cccc2c(C[C@@H]3NC(=O)[C@H]([C@@H](C)O)NC(=O)[C@H](CC(N)=O)NC(=O)[C@@H](NC(=O)CCOCCOCC[N+](C)(C)C)C(C)(C)SSC(C)(C)[C@@H](C(=O)N[C@@H](Cc4ccc(OCCN)cc4)C(=O)N[C@@H](Cc4ccc5cc(O)ccc5c4)C(=O)NC4(C(=O)N[C@@H](CCC(=O)O)C(=O)N[C@@H](CC(N)=O)C(=O)N[C@@H](Cc5cccnc5)C(=O)N(C)CC(N)=O)CCOCC4)NC(=O)[C@H](CCCCN(C)C(=O)CCOCCOCC[N+](C)(C)C)NC3=O)c[nH]c12 [compound 319, cPEG3aCO-Pen(3)-N-T-7MeW-K(NMecPEG3a)-Pen(3)-AEF-6OH2Nal-THP-E-N-3Pya-Sar-CONH2] ({Me3N+(CH2)2O(CH2)2O(CH2)2CO}-[Pen]NT[Trp(7-Me)][Lys(Me)](Me3N+(CH2)2O(CH2)2O(CH2)2CO)[Pen][AEF][2Nal(6-OH)][Thp]EN[3Pal][Sar]-NH2; disulfide 1-6)
< 10 nM | < 0.01 nM | CC(=O)N(C)CCCC[C@@H]1NC(=O)[C@H](Cc2c[nH]c3c(C)cccc23)NC(=O)[C@H]([C@@H](C)O)NC(=O)[C@H](CC(=O)N(C)C)NC(=O)[C@@H](NC(=O)CCOCCOCC[N+](C)(C)C)C(C)(C)SSC(C)(C)[C@@H](C(=O)N[C@@H](Cc2ccc(OCCN)cc2)C(=O)N[C@@H](Cc2ccc3cc(O)ccc3c2)C(=O)NC2(C(=O)N[C@@H](CCN(C)C(C)=O)C(=O)N[C@@H](CC(N)=O)C(=O)N[C@@H](Cc3cccnc3)C(=O)N(C)CC(=O)N(C)C)CCOCC2)NC1=O [compound 371, cPEG3aCO-Pen(3)-N(N(Me)2)-T-7MeW-K(NMeAc)-Pen(3)-AEF-6OH2Nal-THP-Dab(NMeAc)-N-3Pya-Sar-CON(Me)2] ({Me3N+(CH2)2O(CH2)2O(CH2)2CO}-[Pen]D(NMe2)T[Trp(7-Me)][Lys(Me)](Ac)[Pen][AEF][2Nal(6-OH)][Thp][Dab(NMeAc)]N[3Pal][Sar]-NMe2; disulfide 1-6)
< 10 nM | < 0.01 nM | CC(=O)NCCCC[C@@H]1NC(=O)[C@H](Cc2c[nH]c3c(C)cccc23)NC(=O)[C@H]([C@@H](C)O)NC(=O)[C@@H]2CCC(=O)NCCOc3ccc(cc3)C[C@@H](C(=O)N[C@@H](Cc3ccc4cc(O)ccc4c3)C(=O)NC3(C(=O)N[C@@H](CCCCNC(C)=O)C(=O)N[C@@H](CC(N)=O)C(=O)N[C@@H](Cc4cccnc4)C(=O)N(C)CC(N)=O)CCOCC3)NC(=O)[C@@H](NC1=O)C(C)(C)SSC(C)(C)[C@H](NC(C)=O)C(=O)N2 [SEQ ID NO: 414, MeCO-Pen(3)-E(2)-T-7MeW-K(Ac)-Pen(3)-AEF(2)-6OH2Nal-THP-K(Ac)-N-3Pya-Sar-CONH2] (Ac-[Pen]ET[Trp(7-Me)]K(Ac)[Pen][AEF][2Nal(6-OH)][Thp]K(Ac)N[3Pal][Sar]-NH2; disulfide 1-6; lactam 2-7)
< 10 nM | < 0.01 nM | C[C@@H](O)[C@@H]1NC(=O)[C@H](CC(N)=O)NC(=O)[C@@H]2CCSC[C@H](NC(=O)[C@H](CCC(N)=O)NC(=O)[C@H](Cc3c[nH]c4ccccc34)NC1=O)C(=O)N[C@@H](Cc1ccc(OCCN)cc1)C(=O)N[C@@H](Cc1ccc3cc(O)ccc3c1)C(=O)NC1(CCOCC1)C(=O)N[C@H](C(=O)N[C@@H](CC(N)=O)C(=O)N[C@@H](Cc1cccnc1)C(=O)N(C)CC(N)=O)CCC(=O)NCCCCC(=O)N2 [compound 172] ([Ava][Abu(4-yl)]NTWQC[AEF][2Nal(6-OH)][Thp]EN[3Pal][Sar]-NH2; thioether 2-7; lactam N-11)
< 10 nM | < 0.01 nM | CC(=O)N(C)CCCC[C@@H]1NC(=O)[C@H](Cc2c[nH]c3c(C)cccc23)NC(=O)[C@H]([C@@H](C)O)NC(=O)[C@H](CC(=O)N(C)C)NC(=O)[C@H]2NC(=O)[C@H](NC(=O)CCOCCOCC[N+](C)(C)C)CCCCNC(=O)CCC[C@@H](C(=O)N[C@@H](CC(N)=O)C(=O)N[C@@H](Cc3cccnc3)C(=O)N(C)CC(=O)N(C)C)NC(=O)C3(CCOCC3)NC(=O)[C@H](Cc3ccc4cc(O)ccc4c3)NC(=O)[C@H](Cc3ccc(OCCN)cc3)NC(=O)[C@@H](NC1=O)C(C)(C)SSC2(C)C [compound 373, cPEG3aCO-k(2)-Pen(3)-N(N(Me)2)-T-7MeW-K(NMeAc)-Pen(3)-AEF-6OH2Nal-THP-hE(2)-N-3Pya-Sar-CON(Me)2] ({Me3N+(CH2)2O(CH2)2O(CH2)2CO}-[dK][Pen]D(NMe2)T[Trp(7-Me)][Lys(Me)](Ac)[Pen][AEF][2Nal(6-OH)][Thp][Aad]N[3Pal][Sar]-NMe2; lactam 1-11; disulfide 2-7)
< 10 nM | 0.01 to 0.1 nM | CC(=O)NCCCC[C@@H]1NC(=O)[C@H](Cc2c[nH]c3c(C)cccc23)NC(=O)[C@H]([C@@H](C)O)NC(=O)[C@H](CC(N)=O)NC(=O)[C@@H](NC(=O)[C@@H](CCCNC(=N)N)NC(C)=O)C(C)(C)SSC(C)(C)[C@@H](C(=O)N[C@@H](Cc2ccc(OCCCCC[N+](C)(C)C)cc2)C(=O)N[C@@H](Cc2ccc3cc(O)ccc3c2)C(=O)NC2(C(=O)N[C@@H](CCC(=O)O)C(=O)N[C@@H](CC(N)=O)C(=O)N[C@@H](Cc3cccnc3)C(=O)N(C)CC(N)=O)CCOCC2)NC1=O [compound 59, MeCO-r-Pen(3)-N-T-7MeW-K(Ac)-Pen(3)-TMAPF-6OH2Nal-THP-E-N-3Pya-Sar-CONH2] (Ac-[dR][Pen]NT[Trp(7-Me)]K(Ac)[Pen]Y(X18)[2Nal(6-OH)][Thp]EN[3Pal][Sar]-NH2; disulfide 2-7)
< 10 nM | 0.01 to 0.1 nM | CC(=O)NCCCC[C@@H]1NC(=O)[C@H](Cc2c[nH]c3c(-c4cccc(NC(C)=O)c4)cccc23)NC(=O)[C@H]([C@@H](C)O)NC(=O)[C@H](CC(N)=O)NC(=O)[C@@H](NC(=O)[C@@H](CCCC[N+](C)(C)C)NC(C)=O)C(C)(C)SSC(C)(C)[C@@H](C(=O)N[C@@H](Cc2ccc(OCCN)cc2)C(=O)N[C@@H](Cc2ccc3cc(O)ccc3c2)C(=O)NC2(C(=O)N[C@@H](CCC(=O)O)C(=O)N[C@@H](CC(N)=O)C(=O)N[C@@H](Cc3cccnc3)C(=O)N(C)CC(N)=O)CCOCC2)NC1=O [compound 68, MeCO-k(Me)3-Pen(3)-N-T-7(3NAcPh)W-K(Ac)-Pen(3)-AEF-6OH2Nal-THP-E-N-3Pya-Sar-CONH2] (Ac-[dLys(Me3)][Pen]NT[Trp(7-(3-AcNH-Ph))]K(Ac)[Pen][AEF][2Nal(6-OH)][Thp]EN[3Pal][Sar]-NH2; disulfide 2-7)
< 10 nM | < 0.01 nM | CC(=O)NCCCC[C@@H]1NC(=O)[C@H](Cc2c[nH]c3c(C)cccc23)NC(=O)[C@H]([C@@H](C)O)NC(=O)[C@H](CC(N)=O)NC(=O)[C@@H]2CCSC[C@H](NC1=O)C(=O)N[C@@H](Cc1ccc(OCCN)cc1)C(=O)N[C@@H](Cc1ccc3cc(O)ccc3c1)C(=O)NC1(CCOCC1)C(=O)N[C@H](C(=O)N[C@@H](CC(N)=O)C(=O)N[C@@H](Cc1cccnc1)C(=O)N(C)CC(N)=O)CCC(=O)NCCCCC(=O)N2 [compound 171] ([Ava][Abu(4-yl)]NT[Trp(7-Me)]K(Ac)C[AEF][2Nal(6-OH)][Thp]EN[3Pal][Sar]-NH2; thioether 2-7; lactam N-11)
